Experimental data taken from patent publication US10588950B2, “Compositions and methods for counteracting Factor Xa inhibition” (Pfizer Inc., priority 2013, dated 2020).

Experiments:
[1] = system: thrombin generation in normal human plasma; test: Thrombin generation assay using calibrated automated thrombography (CAT), Example 4; format: biochemical
Experimental: Normal human plasma was obtained from George King Biomedical (Overland Park, Kans.). […] Immediately preceding reaction initiation, 10 μL of vehicle or FXa^I16L was added to plasma at final concentrations ranging from 0.03125 nM to 0.5 nM FXa^I16L, given a 120 μL total reaction volume. Reactions were initiated by addition of 20 μL FluCa buffer containing calcium chloride and fluorogenic substrate. Fluorescence of plasma reactions was read at 37° C. at 20 second intervals on a Fluoroskan Ascent fluorometer and compared to those of reference thrombin calibrator reactions to determine thrombin concentrations. The intensity of the fluorescence signal (FU) was continuously monitored at 37° C. using the CAT. Thrombin generation curves (nM thrombin vs. time) were analyzed to extract lag time, peak height, time to peak, and the area under the curve representing the endogenous thrombin potential (ETP) using the Thromboscope software (Thrombinoscope BV version).

[2] = system: clotting time of whole blood; test: ROTEM of whole blood from mice administered rivaroxaban and FXa^I16L in vivo; design: species or system C57BL/6 mice; settings: 1 mg/kg rivaroxaban via tail vein, buffer only about 2 min
Experimental: Mice were then prepared to expose the jugular vein and the vena cava. Approximately 10 mill later FXa^I16L (1 or 2 mg/kg) was infused by direct injection into the jugular vein. Five minutes post injection blood was collected via the vena cava into citrate and corn trypsin inhibitor. Collected blood was then analyzed by ROTEM using dilute tissue factor (Innovin, 1:42,000 dilution).

[3] = system: blood loss following a tail cut; settings: mouse, in vivo, 50 mg/kg
Experimental: Thirty minutes later, mice were anesthetized with isoflurane and placed on a heated platform, and the body temperature of the mice was maintained at 37° C. prior to the tail cut. The tails were immersed in 50 mL pre-warmed phosphate buffered saline (PBS) at 37° C. for 2 minutes. A 3 mm tail cut was made and blood was collected into PBS for a 10 minute period. A quantitative assessment of the amount of bleeding was determined by hemoglobin content of the blood collected into PBS. Tubes were centrifuged to collect erythrocytes, resuspended in 5 mL lysis buffer (8.3 g/L NH4Cl, 1.0 g/L KHCO3, and 0.037 g/L EDTA), and the absorbance of the sample was measured at 575 nm. The absorbance values were converted to total blood loss (μL) using a standard curve.
Mice were then anesthetized with isoflurane and placed on a heated platform, and the body temperature of the mice was maintained at 37° C. prior to the tail cut. The tails were immersed in 50 mLs pre-warmed phosphate buffered saline (PBS) at 37° C. for 2 minutes. A 3 mm tail cut was made and blood was collected into PBS for a 10 minute period and the assessment of the amount of bleeding was determined by hemoglobin content as described.

FXa^I16L = FXa^I16L (Homo sapiens, UniProt P00742, I235L); test: Inhibition of free FXa^I16L peptidyl substrate (SpecXa) hydrolysis by rivaroxaban; format: biochemical; settings: free enzyme
[4] = system: thrombin generation in normal human plasma; test: Thrombin generation assay (TGA) in normal human plasma, Example 2; format: biochemical; settings: 500 nM rivaroxaban versus plasma without rivaroxaban
Experimental: The thrombin generation assay (TGA) was used to assess whether the zymogen-like FXa variants can reverse the effects of direct FXa inhibitors in a more physiologic environment. The TGA measures thrombin production in plasma over time following the initiation of coagulation and was performed as previously described (See Bunce et al., (2011) Blood 117, 290-298, incorporated by reference herein in their entirety). […] Thrombin generation was initiated with 2.0 pM tissue factor/4 uM phospholipid as well as CaCl2 and a thrombin fluorogenic substrate.

[5] = system: whole blood clot formation; test: Whole blood rotational thromboelastometry (ROTEM); format: cell-based, human
Experimental: Whole blood thromboelastometry was used to assess the ability of the FXa^I16L variant to reverse the effects of the direct FXa inhibitors in whole blood. In this system, blood is drawn from healthy volunteers. The first 2 mL of blood were discarded and the subsequent 5 mL of blood was collected into a vacutainer (BID, Franklin Lakes, N.J.). Corn trypsin inhibitor and sodium citrate were in the collection tube, prior to collection of the blood sample, to achieve a final concentration of 0.105 M citrate and 25 μg/mL corn trypsin inhibitor (Haematologic Technologies, Burlington, Vt.) in the blood. Two sets of reactions were analyzed for each donor. The initial reaction initiated 5 minutes post blood collection. The second reaction initiated 1 hour post initiation of first reaction (1 hour 5 minutes after collection).
Blood was analyzed using Thromboelastometry ROTEM® delta (Tem International GmbH, Munich, Germany). For the reaction: (1) 6 μL of vehicle, protein, and/or inhibitor were added to the empty cup, (2) 20 μl of 0.2 M CaCl2 (final concentration 11.6 mM), and (3) 20 μl of Innovin (final concentration in reaction 1:10,000; source of tissue factor) were added to the cup. Whole blood collected as described above was added to the reaction (300 up and recordings were allowed to proceed for approximately 30-60 minutes. The data collected was analyzed using the manufacture's software. (Rotem Gamma Software Version 1.1.1).

[6] = system: clot formation at site of vascular injury; test: Laser-induced injury of mouse cremaster muscle, intravital microscopy; format: in vivo; settings: 1 mg/kg rivaroxaban
Description: Using standard techniques, the cremaster muscle of mice was exposed and visualized using intravital microscopy. A vascular injury in the muscle was then induced using a laser. After injury, clot formation was visualized using different fluorescently labeled antibodies that specifically recognize fibrin and platelets. Clotting is indicated by the presence of fluorescent signal from both types of antibodies.

[7] = high doses (supratherapeutic concentrations)
[8] = low doses (therapeutic concentrations)

Sequence of FXa^I16L (P00742 41-179): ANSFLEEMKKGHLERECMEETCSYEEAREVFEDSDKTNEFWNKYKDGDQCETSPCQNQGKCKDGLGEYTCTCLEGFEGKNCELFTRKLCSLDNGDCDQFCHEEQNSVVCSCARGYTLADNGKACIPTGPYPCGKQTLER
Sequence of FXa^I16L (P00742 235-488 I235L): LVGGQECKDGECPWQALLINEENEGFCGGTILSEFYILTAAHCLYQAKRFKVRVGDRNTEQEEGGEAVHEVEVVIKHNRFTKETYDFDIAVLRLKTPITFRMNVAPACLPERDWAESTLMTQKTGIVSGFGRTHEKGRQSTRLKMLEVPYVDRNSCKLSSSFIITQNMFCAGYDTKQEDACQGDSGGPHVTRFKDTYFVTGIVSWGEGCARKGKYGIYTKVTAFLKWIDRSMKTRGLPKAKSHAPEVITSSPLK

SMILES | thrombin generation in normal human plasma ([1]; in vitro rivaroxaban treatment 5-200 nM) | ETP ([1]; rivaroxaban alone) | lag time ([1]; rivaroxaban alone) | peak thrombin ([1]; rivaroxaban alone) | clot time of whole blood (ROTEM) [2] | blood loss following the tail transection [3] | reduced affinity to FXa^I16L versus wild-type FXa (FXa^I16L) | thrombin generation profile of plasma [4] | whole blood clot formation, inhibitor alone [5, 7] | whole blood clot formation, inhibitor alone [5, 8] | accumulation of platelets at the injury site [6] | signs of fibrin at the injury site [6]
O=C(NC[C@H]1CN(c2ccc(N3CCOCC3=O)cc2)C(=O)O1)c1ccc(Cl)s1 [rivaroxaban] | dose dependent inhibition | decrease | increase | decrease | Approximately 10 min | increase | ~15 fold | substantially reduced | almost completely eliminated | partially eliminated | delayed | eliminated
COc1ccc(-n2nc(C(N)=O)c3c2C(=O)N(c2ccc(N4CCCCC4=O)cc2)CC3)cc1 [apixaban] | – | – | – | – | – | – | – | – | almost completely eliminated | partially eliminated | – | –
